The source of these data is patent US11421001B2, “Template-fixed peptidomimetics” (UNIVERSITAET ZUERICH, priority 2007, dated 2022).

Data set [1] deals with hematopoietic progenitors (CFU-GM). Put plainly: Stem cell mobilisation, mice model (CFU-GM). It counts as in vivo, mouse. The source says: The aim of the study was to evaluate the ability of the compound of Example 1 and Example 2 to mobilize hematopoietic progenitors from mouse bone marrow to peripheral blood using in-vitro hematopoietic colony assays. In humans, accurate information about progenitor cell mobilization is provided by the colony forming unit granulocyte-monocyte (CFU-GM) assay or by determining the abundance of CD34(+) cells by FACS analysis (see ref. 10 below). In mice, CD34 is not a useful marker for stem cells; instead the CFU-GM is more commonly used (see ref. 11 below).
In order to assess the ability of the compounds of Example 1 and Example 2 to mobilize murine stem cells (CFU-GM) C3H/HeJ female mice (Jackson Laboratory) were injected s.c. with 5 mg/k, of the compounds of Example 1 and of Example 2 and as reference AMD3100 (Broxmeyer, et al, J Exp Med 201, 1307-1318), (currently undergoing Phase III clinical trials) for stem cell mobilisation. Peripheral blood samples from 5 animals per test group were collected at each time point and nucleated cell counts performed as standard assays.

In the next data set the target is T1, human CXCR4 (Homo sapiens, UniProt P61073).
T1 construct: expressed in transfected cells; host or cells: mouse pre-B cell line 300-19
Kind of data set: Ca2+ assay: CXCR4-antagonizing activity. Format: cell-based. How it is done:
2.2. Ca^2+− Assay: CXCR4-Antagonizing Activity of the Peptides.
Increases in intracellular calcium were monitored using a Flexstation 384 (Molecular Devices, Sunnyvale, Calif.) to assay the peptides for CXCR4 antagonism in a mouse pre-B cell line 300-19 stably transfected with human CXCR4 [see references 1, 2 and 3, below]. The cells were batch loaded with the Calcium 3 Assay kit (Molecular Devices) in assay buffer (Hanks Balanced salt solution, HBSS, 20 mM HEPES, pH 7.4, 0.1% BSA) for 1 h at room temperature and then 200,000 labeled cells were dispensed into black 96 well assays plates (Costar No. 3603). A 20-fold concentrated solution of peptide in assay buffer was added to the cells and the whole plate was centrifuged to settle the cells to the bottom of the wells. Calcium mobilization induced by 10 nM stromal-derived factor-1 (SDF-1) was measured in the Flexstation 384 (excitation, 485 […]) for 90 seconds. A maximal change in fluorescence response above baseline was used to calculate antagonist activity. The data for dose response curves (antagonist concentration versus % maximum response) were fitted to a four parameter logistic equation using SoftmaxPro 4.6 (Molecular Devices), from which IC50% values were calculated.

The nature of data set [2]: Cytotoxicity assay (MTT reduction). Format: cell-based. As to conditions: human, HELA cells (Acc57), peptides at 12.5, 25 and 50 μM, trend line, read-out: Cyto-toxicity LC50/GI50 Hela cells. How it is done:
The cytotoxicity of the peptides to HELA cells (Acc57) and COS-7 cells (CRL-1651) was determined using the MTT reduction assay [see ref. 6 and 7, below]. Briefly the method was as follows: HELA cells and COS-7 cells were seeded at 7.0×10^3 and, respectively, 4.5×10^3 cells per well and grown in 96-well microtiter plates for 24 hours at 37° C. at 5% CO2. At this point, time zero (Tz) was determined by MTT reduction (see below). The supernatant of the remaining wells was discarded, and fresh medium and the peptides in serial dilutions of 12.5, 25 and 50 μM were pipetted into the wells. Each peptide concentration was assayed in triplicate. Incubation of the cells was continued for 48 hours at 37° C. at 5% CO2. Wells were then washed once with PBS and subsequently 100 μl MTT reagent (0.5 mg/mL in medium RPMI1640 and, respectively, DMEM) was added to the wells. This was incubated at 37° C. for 2 hours and subsequently the medium was aspirated and 100 μl isopropanol was added to each well. The absorbance at 595 nm of the solubilized product was measured (OD595peptide). For each concentration averages were calculated from triplicates. The percentage of growth was calculated as follows: (OD595peptide−OD595Tz−OD595Empty well)/(OD595Tz−OD595Empty well)×100% and was plotted for each peptide concentration. […]

Data set [3] concerns human red blood cells (hRBC). Kind of data set: Hemolysis. Format: cell-based. As to conditions: 100 μM peptide, 20% v/v hRBC, 1 hour at 37° C.; percent hemolysis per method. How it is done: The peptides were tested for their hemolytic activity against human red blood cells (hRBC). Fresh hRBC were washed three times with phosphate buffered saline (PBS) by centrifugation for 10 min at 2000×g. Peptides at a concentration of 100 μM were incubated with 20% v/v hRBC for 1 hour at 37° C. The final erythrocyte concentration was approximately 0.9×10^9 cells per ml. A value of 0% resp. 100% cell lysis was determined by incubation of the hRBC in the presence of PBS alone and respectively 0.1% Triton X-100 in H2O. The samples were centrifuged and the supernatant was 20-fold diluted in PBS buffer and the optical density (OD) of the sample at […] was measured. The 100% lyses value (OD540H2O) gave an OD540 of approximately 1.3-1.8. Percent hemolysis was calculated as follows: (OD540peptide/OD540H2O)×100%.

A short description of data set [4]: Plasma stability, human plasma. It counts as in vitro ADME. Conditions: read-out: Stability human Plasma t1/2.
The nature of data set [5]: Plasma stability, rat plasma. Conditions: read-out: Stability rat Plasma t1/2. It counts as in vitro ADME.
Data set [6] in a line: Maximum tolerated dose in mice. It counts as in vivo, mouse. Conditions: mouse, i.v. How it is done:
3.1. Maximum Tolerated Dose in Mice
a) The compound of Example 1, dispersed in Water for Injection or 0.9% physiological saline), was administered, in the preliminary study, by i.v. injection at dose levels of 35, 50, 70, 85, 100, 150, 250 or 500 mg/kg to groups consisting of one male and one female mouse (Crl:CD1(ICR)). In addition, two groups comprising two male and two female mice received dose levels of 90 and 100 mg/kg, respectively, and the 50 mg/kg dose level was repeated in a group comprising one male and one female.
b) Maximum tolerated dose studies (MTD) carried out with the compound of Example 2 using CD1 mice (3 mice/group) and was performed using i.v, ip and sc. administration.

Data set [7] is described as follows: 14-day intravenous injection toxicity and toxicokinetic study in mice. Format: in vivo, mouse. How it is done: 3.2 Repeated Toxicity Studies in Mice
The toxicity and toxicokinetics of the compound of Example 1 was investigated following daily i.v. injection in the mouse for at least 14 days. Groups of 12 male and 12 female Crl:CD1(ICR) mice received dose preparations containing control article (50 mM sodium dihydrogen orthophosphate buffer containing 0.9% w/v sodium chloride) or 8, 24, or 40 mg/kg/day POL6326 at a dose volume of 5 mL/kg. Satellite groups of 24 animals per sex per group were included at each dose level. Assessment of toxicity was based on mortality, clinical signs, body weights, food consumption, ophthalmic examinations, clinical and anatomic pathology, and toxicokinetic evaluations.

Data set [8] relates to CD34(+) hematopoietic cells. Kind of data set: Stem cell mobilisation, monkey model (CD34(+) cells by FACS). Format: in vivo, cynomolgus monkeys (Macaca fascicularis). Conditions: cynomolgus monkeys, slow bolus i.v. injection. How it is done: An assessment of mobilization of peripheral-blood hematopoietic stem cells in cynomolgus monkeys (Macaca fascicularis) was performed. The compound of Example 1 was administered to 4 monkeys (2 male and 2 female) as a slow bolus i.v. injection over 2 minutes and CD34(+) cells were determined by FACS analysis. Toxicokinetic blood sampling was also performed.

Where [9] appears, read: mouse, 8, 24 or 40 mg/kg/day i.v.

A word on the IC50: it is the midpoint of a concentration-inhibition curve. As usually defined, the NOAEL is the highest dose or exposure tested at which no adverse effect was seen.

T1 sequence (P61073 whole entry): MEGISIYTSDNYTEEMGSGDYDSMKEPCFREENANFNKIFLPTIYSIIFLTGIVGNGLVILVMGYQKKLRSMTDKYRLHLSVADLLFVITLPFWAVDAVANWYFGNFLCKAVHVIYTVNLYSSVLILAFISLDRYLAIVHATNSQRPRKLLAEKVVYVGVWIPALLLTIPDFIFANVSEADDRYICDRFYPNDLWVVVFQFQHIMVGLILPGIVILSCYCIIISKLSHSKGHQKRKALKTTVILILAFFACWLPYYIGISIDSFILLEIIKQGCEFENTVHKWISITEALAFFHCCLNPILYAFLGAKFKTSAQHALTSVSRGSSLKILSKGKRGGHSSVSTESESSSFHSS

With `c1cc(CN2CCCNCCNCCCNCC2)ccc1CN1CCCNCCNCCCNCC1` [AMD3100, reference compound], the “effect on CFU-GM blood cell numbers / progenitors over time” value in data set [1] (C3H/HeJ mice, 5 mg/kg s.c., compared to control mice) was “increase in the frequency and number of progenitors at 30 and 60 minutes”.

`C[C@@H]1NC(=O)[C@H](Cc2c[nH]cn2)NC(=O)[C@H](Cc2ccc(O)cc2)NC(=O)[C@@H]2CCCN2C(=O)[C@H]2CCCN2C(=O)[C@H](CCCCN)NC(=O)[C@H](CCC(N)=O)NC(=O)[C@H](Cc2ccc(O)cc2)NC(=O)[C@@H]2CSSC[C@H](NC1=O)C(=O)N[C@@H](CO)C(=O)N[C@@H](C)C(=O)N1CCC[C@@H]1C(=O)N[C@@H](CCN)C(=O)N[C@@H](CCCNC(=N)N)C(=O)N[C@@H](Cc1ccc(O)cc1)C(=O)N2` [Example 1] registered an IC50 against human CXCR4 of 5.5 nM. Also, the CC50 at 48 h in data set [2] was over 50000 nM. Also, the “Hemo-lysis at 100 μM” value in [3] is 0.6. In addition, the half-life at 10 µM in data set [4] was over 4 h. For the same compound, in data set [5], the half-life at 10 µM is over 4 h. The “acute minimum lethal intravenous dose level” value in [6] was “exceed 90 mg/kg”. The NOAEL at 14 days in [7] (both sexes, Crl:CD1(ICR), in vivo, iv, mouse, daily i.v. dosing, 14 days, read-out: NOAEL level) stood at 40 mg/kg/day. For the same compound, the “white blood cell and absolute lymphocyte counts” value in [7] (females given 40 mg/kg/day) is recorded as “mildly higher”. In data set [7] (setting [9]), the clinical chemistry results was “unaffected”; the “effect on body weight, body weight change, food consumption, ophthalmic observations” value is on record as “no notable effect”; the “test article-related gross lesions” value is “No test article-related gross lesions were recorded”; the “test article-related microscopic lesions” value is “No test article-related microscopic lesions were observed”. For the same compound, in data set [1] (C3H/HeJ mice, 5 mg/kg s.c.), the “return of CFU-GM to baseline levels, time post administration” value turned out to be 6 h and the “time of maximal effect on CFU-GM blood cell numbers” value was 120 min. In addition, the “dose of peak level increase in release of CFU-GM (dose response)” value in data set [1] (mice, follow up dose response study) was determined as 5 mg/kg. Further, in [8], the duration of mobilisation entry is given as “transient”, the “mobilization of CD34(+) hematopoietic cells” value is “induced mobilization of CD34(+) hematopoietic cells” and the “time of peak level of mobilization” value is on record as “peak level at two hours”.
